Measured values as given in US11919860B1 (priority 2023, dated 2024).

Test system: Mycobacterium tuberculosis H37Rv (ATCC: 25177)
Experiment: Anti-tubercular activity, colorimetric Resazurin Microplate Assay (REMA)
Type: cell-based
Settings: 192 h, read-out: Anti-tubercular activity against Mycobacterium tuberculosis H37Rv (MIC)

| Compound | MIC [µg/mL] |
| --- | --- |
| CC(C)OC(=O)c1cc[n+](CC(=O)c2ccccc2)cc1.[Br-] [Compound 4a, 4-(Isopropoxycarbonyl)-1-(2-oxo-2-phenylethyl)pyridin-1-ium Bromide] | 0.5 |
| CC(C)OC(=O)c1cc[n+](CC(=O)c2ccc(F)cc2)cc1.[Br-] [Compound 4b, 1-(2-(4-Fluorophenyl)-2-oxoethyl)-4-(isopropoxycarbonyl)pyridin-1-ium bromide] | 1 |
